Experimental data reported in PMC5754411 (Cancer Chemotherapy and Pharmacology, 2017).
Read-outs that look alike come from different tables or passages of the source.

Assays:
[1] = set-up: method as in PMID 28303528; conditions: humans, cited from earlier work
[2] = beagle dogs; ref data not published; cited from earlier work
[3] = Sprague–Dawley rats; ref data not published; cited from earlier work
[4] = clinical; conditions: plasma
Protocol: Signed and dated written informed consent was obtained from each patient before participation in the study and before the performance of any procedures. After informed consent was obtained, eligible participants were given the choice to be admitted to the clinical research unit on day − 1 or on day 1. A summary of the study design can be found in Fig. 1. […] Subjects continued fasting until 2 h after the start of the IV infusion, at which time a non-standardised light meal was served. The radiolabelled dose contained approximately 100 nCi (3.7 kBq) radioactivity and was administered into one arm of the subject; the contralateral arm was used for pharmacokinetic sampling and clinical laboratory blood draws. The syringe for IV drug administration was connected to a Perfusor Space Infusion Pump (B. Braun), which was set to administer 7 mL in 15 min. Blood samples were taken pre-dose and at 1, 1.5, 2 (just before start of IV infusion), 2.125 (halfway through the IV infusion), 2.25 (just before end of infusion), 2.33, 2.66, 3, 4, 6, and 12 h. Sampling was done on each morning of days 2, 3, 4, 5, 7, 9, 11, 13, 15, and 22. Plasma was divided in two sets: one set was sent to Xceleron Inc. (Germantown, MD, USA) for the determination of plasma concentrations of the ^14C-microtracer by AMS, and the other set was stored at the Antoni van Leeuwenhoek Hospital until it received pharmacokinetic analysis at the Good Laboratory Practice–licensed laboratory of the pharmacy. Plasma was separated from blood by centrifugation (3,000 rpm, 15 min, 4 °C) and was stored frozen at ≤ − 70 °C in polypropylene tubes before and after analysis. […] Vital signs assessments, haematology assessment, and blood chemistry assessments were done frequently to make sure that the patients were still in sufficient condition to remain on treatment. […] The study was approved by the local independent ethics committee and was conducted in accordance with local regulations, the Declaration of Helsinki, and International Conference on Harmonisation Good Clinical Practice Guidelines.
In brief, separation was carried out using an HPLC Acquity I Class pump (Waters, Milford, MA, USA) supplied with a SunFire C18 column (50 mm × 2.1 mm, 5 µm, Waters). Gradient elution was applied using 20 mM ammonium acetate in water (mobile phase A) and 0.1% formic acid in acetonitrile-methanol (50:50, v/v; mobile phase B). Each batch of experimental samples was run against freshly prepared calibration standards. Replicate quality control samples at three concentrations were stored and analysed alongside study samples. The analytical range was from 1 to 500 ng/mL.
Total ^14C-radioactivity concentrations in plasma samples were determined using AMS. Plasma samples were directly aliquoted into tubes containing copper oxide powder (CuO). The samples were graphitised and analysed by a Single Stage Accelerator Mass Spectrometer (SSAMS) 250 kV system (National Electrostatics Corp., Middleton, WI, USA). […] Samples were analysed by an Agilent 1200 HPLC system (Agilent Technologies, Palo Alto, CA, USA) equipped with a wavelength UV detector set to 254 nm. Separation was achieved using a Phenomenex Kinetex 2.6 µ biphenyl column (100 Å, 100 × 3.0 mm). Mobile phase A and B consisted of 20 mM ammonium acetate in water and 0.1% formic acid in acetonitrile–methanol (50:50, v/v), respectively. Column oven temperature was set at 40 °C, and run-time was 18 min. […] The fractions were graphitised and analysed by SSAMS. Each batch of experimental samples was run against freshly prepared calibration standards at seven concentrations in duplicates. Replicate quality control samples at three concentrations were stored and also analysed alongside study samples. Finally, F po was calculated as the ratio of the dose-normalised AUC of the oral dose to the IV dose.

[5] = cited from earlier work

Row | Compound | Presence of metabolite in circulation [1] | F po [2] [%] | Dose recovered as the parent compound in faeces ([1]; oral radiolabelled niraparib) | Total orally administered dose recovered in excreta ([1]; urine and faeces, radiolabelled niraparib) | F po [3] [%] | bioavailability ([4]; human, oral, 300 mg) [%] | AUC(0-inf) ([4]; human, po, 300 mg) [ng·h/mL] | AUC(0-t) ([4]; human, po, 300 mg) [ng·h/mL] | Cmax ([4]; human, po, 300 mg) [ng/mL] | t max ([4]; human, po, 300 mg, t max, oral 300 mg niraparib, n = 6, median and range) [h] | half-life ([4]; human, po, 300 mg, t ½, oral 300 mg niraparib, n = 6, sampling 22 days) [h] | t max ([4]; oral 300 mg niraparib, n = 6, median and range) | t max ([5]; previous phase I dose-escalation study, range 1.5–4.1 h) | t ½ ([5]; previous study, shorter sampling period) [h]
1 | O=C(O)c1cccc2cn(-c3ccc(C4CCCNC4)cc3)nc12 (centres unmarked) [M1] | substantially present in circulation |  |  |  |  |  |  |  |  |  |  |  |  | 
2 | NC(=O)c1cccc2cn(-c3ccc([C@@H]4CCCNC4)cc3)nc12 [niraparib] |  | 57 | approximately 20% | approximately 90% | 27 | 72.7 | 47400 | 46900 | 1270 | 4 | ~95.6 | 4.01 (3.07–6.03) h | around 3.1 h | 36.2
